Data set [1] deals with in-vitro BBB model (HBMVEC and astrocytes). As to the kind of experiment: Drug delivery through in-vitro BBB model. The class given is in vitro ADME, human. To be noted: 40 μg/mL in upper chamber, 30 min to Day 2.
Experimental: Primary human brain microvascular endothelial cells (HBMVEC) and astrocytes were obtained from Sciencell Research Laboratories, Carlsbad, Calif. An in-vitro BBB model was established in trans-well plate as per published protocol.^47,48 HBMVECs were inoculated at the upper side of 0.4-μm pore size PTFE membrane tissue culture inserts (Corning, N.Y.) at initial concentration of 10^4 cells/well. A confluent layer of human astrocytes was grown on the lower side of the membrane. After incubation, integrity of the BBB was measured with transendothelial electrical resistance (TEER) using Millicell ERS microelectrodes (Millipore). […] Afterwards, cell media was collected at different time points (30 mins, 1 hr, Day 1, and Day 2) from the lower chamber and the upper chamber was replenished with fresh media. The drug content of the collected medium was measured through HPLC as mentioned above.
The test system of another data set is HIV-1 Ba-L. Kind of data set: Anti-HIV-1 efficacy, p24 ELISA in infected primary human macrophages. The class given is cell-based. To be noted: 40 μg/mL, HIV-1 infected macrophages, supernatant Day 0-7. The procedure:
ND-EFV was investigated for anti-HIV-1 efficacy in primary human macrophage. Human peripheral blood mononuclear cells (PBMCs) were isolated from a healthy subject and differentiated into macrophages as previously published.^45 PBMCs were isolated with Ficoll-Hypaque (Pharmacia) gradient and cells were incubated for differentiation for 7 days in the presence of human macrophage colony stimulating factor (MCSF, Sigma) to macrophages. Following incubation, macrophages were infected with HIV-1 1Ba-L (NIH AIDS research and reference reagent program Cat#510) (100 ng/mL) for 24 hrs. On the next day, cells were washed to get rid of any unattached virus and fresh media was added. At the same time, 40 μg/mL of ND-EFV and unformulated EFV was added to these cells in two different setups. The HIV-1 infected macrophages served as a positive control. The […] treated cells were monitored for up to 10 days along with the infected control cells. The cell supernatant was collected at Day 0, 1, 2, 3, 5, and 7 post-treatment. The viral p24 level in the supernatant was measured with p24 ELISA assay (Cat. #0801200, Zeptometrix, USA). The p24 level at different time points provided the level of viral inhibition caused by ND-EFV and EFV. The p24 level at the culture supernatant will be inversely proportional to therapeutic efficacy of ND-EFV.
For orientation: In an ELISA, binding on a coated surface is turned into a signal by an enzyme label.

Data set [2] in a line: Solubility in water or PBS. It is filed as physicochemical. The text has this: In some embodiments, the efficacy of the ND-EFV formulation can be further optimized by making a suspension of the formulation in a liquid. Being hydrophobic molecules, both EFV and ND were insoluble in water or phosphate buffer saline (PBS). In certain embodiments, solvents with ratios of PBS to DMSO (dimethyl sulfoxide) ranging from 1:1 to 1:9 were used to make the ND-EFV formulation soluble in physiological buffer media. In an exemplary embodiment, a PBS:DMSO ratio of approximately 1:9 was used for making a ND-EFV suspension, which was subsequently diluted in preparation to perform biological experiments.

Turning to `O=C1Nc2ccc(Cl)cc2[C@@](C#CC2CC2)(C(F)(F)F)O1` [EFV, Efavirenz], the “EFV drug release on the CNS side (lower chamber) of the BBB model” value in data set [1] is reported as “very robust drug release”. In the data set on HIV-1 Ba-L, the “time over which HIV-1 replication (p24 level) was controlled” value is not above 5 days. The “solubility in water or phosphate buffer saline (PBS)” value in data set [2] is given as “insoluble”.

The values are drawn from patent publication US9616022B1, “Nanodiamond compositions and their use for drug delivery” (THE FLORIDA INTERNATIONAL UNIVERSITY BOARD OF TRUSTEES, priority 2016, dated 2017).
